From US20230085307A1, “PYRIDAZINONE COMPOUND AND HERBICIDE” (NISSAN CHEMICAL CORPORATION, priority 2019, published 2023)

What was measured:
rice flat sedge = test: Test Example 3: herbicidal effect by foliage application, Wagner pot (Table 18, symbol E); format: in vivo, rice flat sedge (Cyperus iria); conditions: amount of applied herbicide 320 g/ha
In short: (§1)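 Plants were sown in alluvial soil held under 0.1–0.5 cm standing water and grown 14 days in a greenhouse at 25–30 °C. An emulsifiable formulation, water-diluted to the set dose, was then sprayed onto the foliage, and effects were scored three weeks later using previously defined criteria.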

Chinese sprangletop = test: Test Example 3: herbicidal effect by foliage application, Wagner pot (Table 18, symbol D); format: in vivo, chinese sprangletop (Leptochloa chinensis); conditions: amount of applied herbicide 320 g/ha
In short: as §1

late watergrass [1] = test: Test Example 2: herbicidal activity, application during weed generation under submerged conditions (Table 17, symbol A); format: in vivo, late watergrass (Echinochloa oryzicola); conditions: AAH 320 g/ha; application during weed generation, submerged conditions
In short: (§2)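 Alluvial soil in Wagner pots was flooded to 4 cm depth and sown with the three weeds together; pots were kept in a greenhouse at 25° C. to 30° C. At the one to two leaf stage, an emulsion formulation diluted in water to a set rate went onto the water surface; scored three weeks later.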

barnyard grass [2] = test: Test Example 4: herbicidal effect by soil treatment (Table 19, symbol H); format: in vivo, barnyard grass (Echinochloa crus-galli); conditions: amount of applied herbicide 320 g/ha
In short: (§3)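 Soil-surface application: an emulsion agent diluted with water to the predetermined dose is sprayed uniformly over seeds lying under roughly 1.5 cm of sterilized diluvial soil. Boxes stay in a greenhouse at 25° C. to 30° C. Three weeks later, each species is graded on previously defined criteria.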

oval-leafed pondweed [3] = test: Test Example 2: herbicidal activity, application during weed generation under submerged conditions (Table 17, symbol C); format: in vivo, oval-leafed pondweed (Monochoria vaginalis); conditions: AAH 320 g/ha; application during weed generation, submerged conditions
In short: as §2

persian speedwell = test: Test Example 4: herbicidal effect by soil treatment (Table 19, symbol R); format: in vivo, Persian speedwell (Veronica persica); conditions: amount of applied herbicide 320 g/ha
In short: as §3

wild oat = test: Test Example 4: herbicidal effect by soil treatment (Table 19, symbol I); format: in vivo, wild oat (Avena fatua); conditions: amount of applied herbicide 320 g/ha
In short: as §3

green foxtail = test: Test Example 4: herbicidal effect by soil treatment (Table 19, symbol G); format: in vivo, green foxtail (Setaria viridis); conditions: amount of applied herbicide 320 g/ha
In short: as §3

barnyard grass [4] = test: Test Example 3: herbicidal effect by foliage application, Wagner pot (Table 18, symbol H); format: in vivo, barnyard grass (Echinochloa crus-galli); conditions: amount of applied herbicide 320 g/ha
In short: as §1

blackgrass = test: Test Example 4: herbicidal effect by soil treatment (Table 19, symbol J); format: in vivo, blackgrass (Alopecurus myosuroides); conditions: amount of applied herbicide 320 g/ha
In short: as §3

southern crabgrass = test: Test Example 4: herbicidal effect by soil treatment (Table 19, symbol F); format: in vivo, southern crabgrass (Digitaria ciliaris); conditions: amount of applied herbicide 320 g/ha
In short: as §3

late watergrass [5] = test: Test Example 1: herbicidal activity, application before weed generation under submerged conditions (Table 16, symbol A); format: in vivo, late watergrass (Echinochloa oryzicola); conditions: 320 g/ha applied herbicide
In short: (§4)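 Submerged Wagner pots (alluvial soil, 4 cm water) sown with weed seeds and planted with 2.5-leaf rice seedlings; emulsifiable concentrate diluted in water applied to water surface on sowing day. Held in greenhouse at 25-30 °C; injury scored 0-5 by herbicidal rate after three weeks.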

Japanese bulrush [6] = test: Test Example 1: herbicidal activity, application before weed generation under submerged conditions (Table 16, symbol B); format: in vivo, Japanese bulrush (Schoenoplectus juncoides); conditions: 320 g/ha applied herbicide
In short: as §4

Japanese bulrush [7] = test: Test Example 2: herbicidal activity, application during weed generation under submerged conditions (Table 17, symbol B); format: in vivo, Japanese bulrush (Schoenoplectus juncoides); conditions: AAH 320 g/ha; application during weed generation, submerged conditions
In short: as §2

velvetleaf = test: Test Example 4: herbicidal effect by soil treatment (Table 19, symbol M); format: in vivo, velvetleaf (Abutilon theophrasti); conditions: amount of applied herbicide 320 g/ha
In short: as §3

windgrass = test: Test Example 4: herbicidal effect by soil treatment (Table 19, symbol L); format: in vivo, windgrass (Apera spica-venti); conditions: amount of applied herbicide 320 g/ha
In short: as §3

redroot pigweed = test: Test Example 4: herbicidal effect by soil treatment (Table 19, symbol N); format: in vivo, redroot pigweed (Amaranthus retroflexus); conditions: amount of applied herbicide 320 g/ha
In short: as §3

Italian ryegrass = test: Test Example 4: herbicidal effect by soil treatment (Table 19, symbol K); format: in vivo, Italian ryegrass (Lolium multiflorum); conditions: amount of applied herbicide 320 g/ha
In short: as §3

chickweed = test: Test Example 4: herbicidal effect by soil treatment (Table 19, symbol P); format: in vivo, common chickweed (Stellaria media); conditions: amount of applied herbicide 320 g/ha
In short: as §3

lambsquarters = test: Test Example 4: herbicidal effect by soil treatment (Table 19, symbol O); format: in vivo, lambsquarters (Chenopodium album); conditions: amount of applied herbicide 320 g/ha
In short: as §3

oval-leafed pondweed [8] = test: Test Example 1: herbicidal activity, application before weed generation under submerged conditions (Table 16, symbol C); format: in vivo, oval-leafed pondweed (Monochoria vaginalis); conditions: 320 g/ha applied herbicide
In short: as §4

| SMILES | herbicidal effect on E: rice flat sedge (rice flat sedge) | herbicidal effect on D: Chinese sprangletop (Chinese sprangletop) | herbicidal effect rating, A: late watergrass (late watergrass [1]) | herbicidal effect on H: barnyard grass (barnyard grass [2]) | herbicidal effect rating, C: oval-leafed pondweed (oval-leafed pondweed [3]) | herbicidal effect on R: persian speedwell (persian speedwell) | herbicidal effect on I: wild oat (wild oat) | herbicidal effect on G: green foxtail (green foxtail) | herbicidal effect on H: barnyard grass (barnyard grass [4]) | herbicidal effect on J: blackgrass (blackgrass) | herbicidal effect on F: southern crabgrass (southern crabgrass) | Herbicidal effect on A: late watergrass (grade 0-5) (late watergrass [5]) | Herbicidal effect on B: Japanese bulrush (grade 0-5) (Japanese bulrush [6]) | herbicidal effect rating, B: Japanese bulrush (Japanese bulrush [7]) | herbicidal effect on M: velvetleaf (velvetleaf) | herbicidal effect on L: windgrass (windgrass) | herbicidal effect on N: redroot pigweed (redroot pigweed) | herbicidal effect on K: Italian ryegrass (Italian ryegrass) | herbicidal effect on P: chickweed (chickweed) | herbicidal effect on O: lambsquarters (lambsquarters) | further results |
| --- | --- | --- | --- | --- | --- | --- | --- | --- | --- | --- | --- | --- | --- | --- | --- | --- | --- | --- | --- | --- | --- |
| CCCC(=O)Oc1c(C)nn(C)c(=O)c1-c1c(-c2ccc(Cl)cc2F)sc2ccc(F)cc12 [2-349] | 4 (Herbicidal rate of 70% or more and less than 90%) | 5 (Herbicidal rate of 90% or more (almost completely withered)) | 3 (Herbicidal rate of 40% or more and less than 70%) | 0 (Herbicidal rate of 5% or less (almost no effect)) | 3 (Herbicidal rate of 40% or more and less than 70%) | 4 (Herbicidal rate of 70% or more and less than 90%) | 0 (Herbicidal rate of 5% or less (almost no effect)) | 0 (Herbicidal rate of 5% or less (almost no effect)) | 5 (Herbicidal rate of 90% or more (almost completely withered)) | 0 (Herbicidal rate of 5% or less (almost no effect)) | 0 (Herbicidal rate of 5% or less (almost no effect)) | 3 (Herbicidal rate of 40% or more and less than 70%) | 0 (Herbicidal rate of 5% or less (almost no effect)) | 3 (Herbicidal rate of 40% or more and less than 70%) | 0 (Herbicidal rate of 5% or less (almost no effect)) | 0 (Herbicidal rate of 5% or less (almost no effect)) | 0 (Herbicidal rate of 5% or less (almost no effect)) | 4 (Herbicidal rate of 70% or more and less than 90%) | 3 (Herbicidal rate of 40% or more and less than 70%) | 0 (Herbicidal rate of 5% or less (almost no effect)) | Herbicidal effect on C: oval-leafed pondweed (grade 0-5) (oval-leafed pondweed [8]): 0 (Herbicidal rate of 5% or less (almost no effect)) |
| Cc1nn(C)c(=O)c(-c2c(-c3ccc(Cl)c(F)c3)sc3ccc(F)cc23)c1O [2-350] | 5 (Herbicidal rate of 90% or more (almost completely withered)) | 5 (Herbicidal rate of 90% or more (almost completely withered)) | 0 (Herbicidal rate of 5% or less (almost no effect)) | 5 (Herbicidal rate of 90% or more (almost completely withered)) | 0 (Herbicidal rate of 5% or less (almost no effect)) | 5 (Herbicidal rate of 90% or more (almost completely withered)) | 0 (Herbicidal rate of 5% or less (almost no effect)) | 5 (Herbicidal rate of 90% or more (almost completely withered)) | 5 (Herbicidal rate of 90% or more (almost completely withered)) | 0 (Herbicidal rate of 5% or less (almost no effect)) | 4 (Herbicidal rate of 70% or more and less than 90%) | 3 (Herbicidal rate of 40% or more and less than 70%) | 0 (Herbicidal rate of 5% or less (almost no effect)) | 2 (Herbicidal rate of 20% or more and less than 40%) | 3 (Herbicidal rate of 40% or more and less than 70%) | 4 (Herbicidal rate of 70% or more and less than 90%) | 5 (Herbicidal rate of 90% or more (almost completely withered)) | 4 (Herbicidal rate of 70% or more and less than 90%) | 3 (Herbicidal rate of 40% or more and less than 70%) | 4 (Herbicidal rate of 70% or more and less than 90%) | Herbicidal effect on C: oval-leafed pondweed (grade 0-5) (oval-leafed pondweed [8]): 0 (Herbicidal rate of 5% or less (almost no effect)) |
| CCCC(=O)Oc1c(C)nn(C)c(=O)c1-c1c(-c2ccc(Cl)c(F)c2)sc2ccc(F)cc12 [2-351] | 4 (Herbicidal rate of 70% or more and less than 90%) | 5 (Herbicidal rate of 90% or more (almost completely withered)) | 3 (Herbicidal rate of 40% or more and less than 70%) | 0 (Herbicidal rate of 5% or less (almost no effect)) | 4 (Herbicidal rate of 70% or more and less than 90%) | 3 (Herbicidal rate of 40% or more and less than 70%) | 0 (Herbicidal rate of 5% or less (almost no effect)) | 0 (Herbicidal rate of 5% or less (almost no effect)) | 5 (Herbicidal rate of 90% or more (almost completely withered)) | 0 (Herbicidal rate of 5% or less (almost no effect)) | 0 (Herbicidal rate of 5% or less (almost no effect)) | 5 (Herbicidal rate of 90% or more (almost completely withered)) | 3 (Herbicidal rate of 40% or more and less than 70%) | 3 (Herbicidal rate of 40% or more and less than 70%) | 0 (Herbicidal rate of 5% or less (almost no effect)) | 0 (Herbicidal rate of 5% or less (almost no effect)) | 3 (Herbicidal rate of 40% or more and less than 70%) | 0 (Herbicidal rate of 5% or less (almost no effect)) | 1 (Herbicidal rate of 5% or more and less than 20%) | 3 (Herbicidal rate of 40% or more and less than 70%) | Herbicidal effect on C: oval-leafed pondweed (grade 0-5) (oval-leafed pondweed [8]): 3 (Herbicidal rate of 40% or more and less than 70%) |
